Assay results: patent US12286442B2, “Methods and materials for increasing transcription factor eb polypeptide levels” (University of Pittsburgh—Of the Commonwealth System of …, priority 2019, dated 2025)

Experiments:
TFEB = test: High content screen measuring TFEB nuclear accumulation (TFEB nuclear/cytosol ratio) in BEAS-2B cells stably expressing TFEB-EGFP; type: cell-based, human; conditions: 18 hours incubation
Procedure, shortened: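 Readout: lowest compound concentration giving a 25% rise in nuclear/cytosol TFEB-GFP ratio, from DAPI-masked nuclear and mask-expanded cytosolic signals. Cells (BEAS-2B, TFEB-EGFP stable, ~2300–2500/well) rested 8 hours, then treated 18 hours with compound serial dilutions in 2% FBS medium before PFA fixation and DAPI staining.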

BEAS-2B cells = test: Toxicity: compound concentration needed to induce greater than 50 percent of cell loss; type: cell-based, human; conditions: 18 hours incubation
Procedure, shortened: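 Reported value is the concentration giving greater than 50 percent cell loss, grouped into bins (≥25 μM; between 1 and 25 μM; ≤1 μM as "+++"). Measured by high-content imaging of DAPI-stained BEAS-2B TFEB-EGFP cells fixed after 18 h compound exposure.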

Compound	efficacy (minimal compound concentration needed to increase TFEB nuclear/cytosol ratio by 25%) (TFEB)	toxicity (compound concentration needed to induce greater than 50 percent of cell loss) (BEAS-2B cells)
Cc1nc2cc(Nc3nc(-c4ccncc4)nc4ccccc34)ccc2s1 [Compound 95]	+ (“+” equals >25 μM)	+ (cell loss of greater than 50 percent at a concentration that equals or is greater than 25 μM was represented as)
FC(F)(F)c1nc2ccc(Nc3nc(-c4ccncc4)nc4ccccc34)cc2o1 [Compound 96]	+ (“+” equals >25 μM)	+ (cell loss of greater than 50 percent at a concentration that equals or is greater than 25 μM was represented as)
c1ccc2c(Nc3cccc4[nH]ccc34)nc(-c3ccncc3)nc2c1 [Compound 97]	+++ (“+++” equals ≤1 μM)	+ (cell loss of greater than 50 percent at a concentration that equals or is greater than 25 μM was represented as)
c1cc(Nc2nc(-c3ccncc3)nc3ccccc23)c2[nH]ccc2c1 [Compound 98]	+++ (“+++” equals ≤1 μM)	+ (cell loss of greater than 50 percent at a concentration that equals or is greater than 25 μM was represented as)
c1ccc2c(Nc3cccc4[nH]ncc34)nc(-c3ccncc3)nc2c1 [Compound 99]	+++ (“+++” equals ≤1 μM)	+ (cell loss of greater than 50 percent at a concentration that equals or is greater than 25 μM was represented as)
c1cc(Nc2nc(-c3ccncc3)nc3ccccc23)c2[nH]ncc2c1 [Compound 100]	+ (“+” equals >25 μM)	+ (cell loss of greater than 50 percent at a concentration that equals or is greater than 25 μM was represented as)
c1ccc2c(Nc3cccc4[nH]nnc34)nc(-c3ccncc3)nc2c1 [Compound 101]	+ (“+” equals >25 μM)	+ (cell loss of greater than 50 percent at a concentration that equals or is greater than 25 μM was represented as)
c1ccc2c(Nc3ccc4ncncc4c3)nc(-c3ccncc3)nc2c1 [Compound 102]	+++ (“+++” equals ≤1 μM)	+ (cell loss of greater than 50 percent at a concentration that equals or is greater than 25 μM was represented as)
c1ccc2c(Nc3ccc4nccnc4c3)nc(-c3ccncc3)nc2c1 [Compound 103]	+++ (“+++” equals ≤1 μM)	+ (cell loss of greater than 50 percent at a concentration that equals or is greater than 25 μM was represented as)
c1ccc2c(Nc3ccc4[nH]ccc4c3)nc(-c3cc[nH]c3)nc2c1 [Compound 104]	+++ (“+++” equals ≤1 μM)	+ (cell loss of greater than 50 percent at a concentration that equals or is greater than 25 μM was represented as)
c1cnc2ccc(Nc3nc(-c4cncs4)nc4ccccc34)cc2c1 [Compound 106]	+ (“+” equals >25 μM)	+ (cell loss of greater than 50 percent at a concentration that equals or is greater than 25 μM was represented as)
c1ccc2c(Nc3ccc4ncsc4c3)nc(-c3cncs3)nc2c1 [Compound 107]	+ (“+” equals >25 μM)	+ (cell loss of greater than 50 percent at a concentration that equals or is greater than 25 μM was represented as)
Fc1cccc2c(Nc3ccc4[nH]ccc4c3)nc(-c3ccncc3)nc12 [Compound 108]	+++ (“+++” equals ≤1 μM)	+ (cell loss of greater than 50 percent at a concentration that equals or is greater than 25 μM was represented as)
COc1cccc2nc(-c3ccncc3)nc(Nc3ccc4[nH]ccc4c3)c12 [Compound 109]	+++ (“+++” equals ≤1 μM)	+ (cell loss of greater than 50 percent at a concentration that equals or is greater than 25 μM was represented as)
Fc1ccc2nc(-c3ccncc3)nc(Nc3ccc4[nH]ccc4c3)c2c1 [Compound 110]	+++ (“+++” equals ≤1 μM)	+ (cell loss of greater than 50 percent at a concentration that equals or is greater than 25 μM was represented as)
Fc1cccc2nc(-c3ccncc3)nc(Nc3ccc4[nH]ccc4c3)c12 [Compound 111]	+ (“+” equals >25 μM)	+ (cell loss of greater than 50 percent at a concentration that equals or is greater than 25 μM was represented as)
Fc1ccc2c(Nc3ccc4[nH]ccc4c3)nc(-c3ccncc3)nc2c1 [Compound 112]	+++ (“+++” equals ≤1 μM)	+ (cell loss of greater than 50 percent at a concentration that equals or is greater than 25 μM was represented as)
COc1ccc2nc(-c3ccncc3)nc(Nc3ccc4[nH]ccc4c3)c2c1 [Compound 113]	+++ (“+++” equals ≤1 μM)	++ (cell loss of greater than 50 percent at a concentration less than 25 μM and greater than 1 μM was represented as)
COc1ccc2c(Nc3ccc4[nH]ccc4c3)nc(-c3ccncc3)nc2c1 [Compound 114]	+++ (“+++” equals ≤1 μM)	++ (cell loss of greater than 50 percent at a concentration less than 25 μM and greater than 1 μM was represented as)
Cc1ccc2nc(-c3ccncc3)nc(Nc3ccc4[nH]ccc4c3)c2c1 [Compound 116]	+++ (“+++” equals ≤1 μM)	+ (cell loss of greater than 50 percent at a concentration that equals or is greater than 25 μM was represented as)
Cc1cccc2c(Nc3ccc4[nH]ccc4c3)nc(-c3ccncc3)nc12 [Compound 117]	+++ (“+++” equals ≤1 μM)	+ (cell loss of greater than 50 percent at a concentration that equals or is greater than 25 μM was represented as)
Cc1nc2ccc(Nc3nc(-c4ccncc4)nc4ccncc34)cc2s1 [Compound 118]	++ (“++” equals between ≤25 μM and >1 μM)	+ (cell loss of greater than 50 percent at a concentration that equals or is greater than 25 μM was represented as)
CCc1nc2ccc(Nc3nc(-c4ccncc4)nc4ccncc34)cc2s1 [Compound 119]	+ (“+” equals >25 μM)	+ (cell loss of greater than 50 percent at a concentration that equals or is greater than 25 μM was represented as)
CC(C)c1nc2ccc(Nc3nc(-c4ccncc4)nc4ccncc34)cc2s1 [Compound 120]	+ (“+” equals >25 μM)	+ (cell loss of greater than 50 percent at a concentration that equals or is greater than 25 μM was represented as)
c1cc(-c2nc(Nc3ccc4nc(C5CC5)sc4c3)c3cnccc3n2)ccn1 [Compound 121]	+ (“+” equals >25 μM)	+ (cell loss of greater than 50 percent at a concentration that equals or is greater than 25 μM was represented as)
c1cc(-c2nc(Nc3ccc4ncsc4c3)c3cnccc3n2)ccn1 [Compound 122]	+ (“+” equals >25 μM)	+ (cell loss of greater than 50 percent at a concentration that equals or is greater than 25 μM was represented as)
c1cc(-c2nc(Nc3ccc4c(c3)OCO4)c3cnccc3n2)ccn1 [Compound 123]	++ (“++” equals between ≤25 μM and >1 μM)	+ (cell loss of greater than 50 percent at a concentration that equals or is greater than 25 μM was represented as)
CC(C)(C)c1cc2cc(Nc3nc(-c4ccncc4)nc4ccncc34)ccc2[nH]1 [Compound 124]	+++ (“+++” equals ≤1 μM)	+ (cell loss of greater than 50 percent at a concentration that equals or is greater than 25 μM was represented as)
c1cc(-c2nc(Nc3ccc4cn[nH]c4c3)c3cnccc3n2)ccn1 [Compound 125]	++ (“++” equals between ≤25 μM and >1 μM)	+ (cell loss of greater than 50 percent at a concentration that equals or is greater than 25 μM was represented as)
Cc1c(Nc2nc(-c3ccncc3)nc3ccncc23)ccc2[nH]ccc12 [Compound 126]	++ (“++” equals between ≤25 μM and >1 μM)	+ (cell loss of greater than 50 percent at a concentration that equals or is greater than 25 μM was represented as)
